Results taken from US8889875B2, “Pyridyl derivatives as CFTR modulators” (Vertex Pharmaceuticals Incorporated, priority 2008, dated 2014).

What follows are molecules tested against T1, ΔF508-CFTR (Homo sapiens, UniProt P13569, DEL508-508) (assay: Membrane potential optical assay, identification of correction compounds (single-addition HTS format)). Details: PercentActivity; ΔF508-CFTR in NIH3T3 mouse fibroblasts; 16-24 hrs with compound; 10 μM forskolin and 20 μM genistein; read-out: BinnedMaxEfficacy.
T1 construct: expressed in transfected cells
T1 sequence (P13569 with tags, fused parts or gaps DEL508-508): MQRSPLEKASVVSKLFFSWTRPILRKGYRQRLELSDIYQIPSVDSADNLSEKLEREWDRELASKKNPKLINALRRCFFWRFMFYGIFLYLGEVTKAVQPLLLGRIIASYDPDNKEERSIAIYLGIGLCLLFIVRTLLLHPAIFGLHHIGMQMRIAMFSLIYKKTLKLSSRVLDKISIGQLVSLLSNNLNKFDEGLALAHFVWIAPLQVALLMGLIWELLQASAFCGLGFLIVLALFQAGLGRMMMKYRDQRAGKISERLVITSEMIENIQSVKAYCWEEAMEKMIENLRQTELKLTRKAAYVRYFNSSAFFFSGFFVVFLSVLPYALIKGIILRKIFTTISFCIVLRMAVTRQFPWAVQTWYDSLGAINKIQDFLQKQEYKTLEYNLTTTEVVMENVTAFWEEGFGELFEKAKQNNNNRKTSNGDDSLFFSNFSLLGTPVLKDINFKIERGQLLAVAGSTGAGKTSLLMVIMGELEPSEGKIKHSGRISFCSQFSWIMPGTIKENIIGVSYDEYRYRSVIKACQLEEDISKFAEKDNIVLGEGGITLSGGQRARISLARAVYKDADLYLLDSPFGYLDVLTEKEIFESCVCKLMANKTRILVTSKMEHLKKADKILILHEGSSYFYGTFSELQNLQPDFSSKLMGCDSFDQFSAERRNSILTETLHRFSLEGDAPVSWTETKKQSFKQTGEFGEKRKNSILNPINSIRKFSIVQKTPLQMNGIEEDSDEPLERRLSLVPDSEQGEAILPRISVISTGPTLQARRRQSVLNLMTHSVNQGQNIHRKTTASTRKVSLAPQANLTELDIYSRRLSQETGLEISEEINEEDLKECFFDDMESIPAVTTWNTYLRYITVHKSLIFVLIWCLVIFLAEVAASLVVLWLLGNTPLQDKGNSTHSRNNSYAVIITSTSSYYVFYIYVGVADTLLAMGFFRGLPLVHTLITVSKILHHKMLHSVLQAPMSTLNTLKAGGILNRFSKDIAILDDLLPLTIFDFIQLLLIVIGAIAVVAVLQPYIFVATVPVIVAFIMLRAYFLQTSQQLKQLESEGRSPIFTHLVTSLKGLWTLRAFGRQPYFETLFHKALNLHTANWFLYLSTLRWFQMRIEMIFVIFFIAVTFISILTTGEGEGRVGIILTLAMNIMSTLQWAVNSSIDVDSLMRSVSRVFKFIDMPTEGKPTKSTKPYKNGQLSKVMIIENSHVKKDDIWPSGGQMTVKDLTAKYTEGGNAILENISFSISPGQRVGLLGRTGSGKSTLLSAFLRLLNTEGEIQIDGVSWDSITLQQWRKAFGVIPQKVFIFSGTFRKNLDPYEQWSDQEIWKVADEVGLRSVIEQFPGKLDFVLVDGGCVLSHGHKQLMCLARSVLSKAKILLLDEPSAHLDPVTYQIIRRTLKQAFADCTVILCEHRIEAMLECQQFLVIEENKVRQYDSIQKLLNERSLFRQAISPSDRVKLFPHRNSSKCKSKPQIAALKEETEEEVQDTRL
Format: cell-based
From the text: Membrane Potential Optical Methods for Assaying ΔF508-CFTR Modulation Properties of Compounds.
The assay utilizes fluorescent voltage sensing dyes to measure changes in membrane potential using a fluorescent plate reader (e.g., FLIPR III, Molecular Devices, Inc.) as a readout for increase in functional ΔF508-CFTR in NIH 3T3 cells. The driving force for the response is the creation of a chloride ion gradient in conjunction with channel activation by a single liquid addition step after the cells have previously been treated with compounds and subsequently loaded with a voltage sensing dye.
To identify small molecules that correct the trafficking defect associated with ΔF508-CFTR; a single-addition HTS assay format was developed. Assay Plates containing cells are incubated for ˜2-4 hours in tissue culture incubator at 37° C., 5% CO2, 90% humidity. Cells are then ready for compound exposure after adhering to the bottom of the assay plates.
The cells were incubated in serum-free medium for 16-24 hrs in tissue culture incubator at 37° C., 5% CO2, 90% humidity in the presence or absence (negative control) of test compound. The cells were subsequently rinsed 3× with Krebs Ringers solution and loaded with a voltage sensing redistribution dye. To activate ΔF508-CFTR, 10 μM forskolin and the CFTR potentiator, genistein (20 μM), were added along with Cl^−-free medium to each well. The addition of Cl^−-free medium promoted Cl^− efflux in response to ΔF508-CFTR activation and the resulting membrane depolarization was optically monitored using voltage sensor dyes.
Bath Solution #1: (in mM) NaCl 160, KCl 4.5, CaCl2 2, MgCl2 1, HEPES 10, pH 7.4 with NaOH.
Chloride-free bath solution: Chloride salts in Bath Solution #1 are substituted with gluconate salts.
NIH3T3 mouse fibroblasts stably expressing ΔF508-CFTR are used for optical measurements of membrane potential. The cells are maintained at 37° C. in 5% CO2 and 90% humidity in Dulbecco's modified Eagle's medium supplemented with 2 mM glutamine, 10% fetal bovine serum, 1×NEAA, β-ME, 1×pen/strep, and 25 mM HEPES in 175 cm^2 culture flasks. For all optical assays, the cells were seeded at ˜20,000/well in 384-well matrigel-coated plates and cultured for 2 hrs at 37° C. before culturing at 27° C. for 24 hrs. for the potentiator assay. For the correction assays, the cells are cultured at 27° C. or 37° C. with and without compounds for 16-24 hours.
`COc1ccccc1C(OCCN1CCOCC1)c1ccc(NC(=O)C2(c3ccc4c(c3)OCO4)CC2)nc1` (stereo not shown) [Compound 11] gave an Emax of over 100%.
With `CNC(c1ccc(NC(=O)C2(c3ccc4c(c3)OCO4)CC2)nc1)c1ccccc1OC` (stereo not shown) [Compound 53] the Emax was over 100%.
Work on `O=C(Nc1ccc(Cc2ccccc2Cl)cn1)C1(c2ccc3c(c2)OCO3)CC1` [Compound 59] yielded an Emax of over 100%.
In the case of `COc1ccccc1C(OCCCO)c1ccc(NC(=O)C2(c3ccc4c(c3)OCO4)CC2)nc1` (stereo not shown) [Compound 66], the Emax is reported as over 100%.
`O=C(Nc1ccc(Cc2ccccc2)cn1)C1(c2ccc3c(c2)OCO3)CC1` [Compound 63] gave an Emax of over 100%.
`COc1ccccc1Cc1ccc(NC(=O)C2(c3ccc(C)cc3)CC2)nc1` [Compound 31] was tested, and the Emax was 25 to 100%.
`COc1ccccc1C(c1ccc(NC(=O)C2(c3ccc4c(c3)OCO4)CC2)nc1)N(C)C` (stereo not shown) [Compound 20] gave an Emax of over 100%.
Molecule `O=C(Nc1ccc(C(F)(F)F)cn1)C1(c2ccc3c(c2)OCO3)CC1` [Compound 17] has an Emax of 25 to 100%.
`O=C(Nc1ccc(Cc2c(Cl)cccc2Cl)cn1)C1(c2ccc3c(c2)OCO3)CC1` [Compound 24] gave an Emax of over 100%.
`COc1ccc(C2(C(=O)Nc3ccccn3)CC2)cc1` [Compound 25] gave an Emax of 25 to 100%.
In the case of `COc1ccccc1Cc1ccc(NC(=O)C2(c3ccccc3OC)CC2)nc1` [Compound 13], the Emax is reported as 25 to 100%.
`COc1ccccc1C(c1ccc(NC(=O)C2(c3ccc4c(c3)OCO4)CC2)nc1)N1CC[C@@H](O)C1` (stereo partly shown) [Compound 55] gave an Emax of over 100%.
In the case of `COc1ccc(Cc2cccc(NC(=O)C3(c4ccc5c(c4)OCO5)CC3)n2)cc1` [Compound 3], the Emax is reported as over 100%.
`COc1ccccc1C(c1ccc(NC(=O)C2(c3ccc4c(c3)OCO4)CC2)nc1)N1CCN(CCO)CC1` (stereo not shown) [Compound 39] showed an Emax of 25 to 100%.
`O=C(Nc1cccc(Cc2ccccc2Cl)n1)C1(c2ccc3c(c2)OCO3)CC1` [Compound 78] was tested, and the Emax was over 100%.
Molecule `COc1ccccc1Cc1ccc(NC(=O)C2(c3ccc(Cl)cc3)CC2)nc1` [Compound 46] has an Emax of over 100%.
In the case of `Cc1ccc(NC(=O)C2(c3ccc4c(c3)OC(F)(F)O4)CC2)nc1` [Compound 40], the Emax is reported as over 100%.
Molecule `Cc1ccc(NC(=O)C2(c3ccc4c(c3)OCO4)CC2)nc1` [Compound 42] has an Emax of over 100%.
In the case of `COc1ccccc1C(OCCN1CCCCC1)c1ccc(NC(=O)C2(c3ccc4c(c3)OCO4)CC2)nc1` (stereo not shown) [Compound 71], the Emax is reported as 25 to 100%.
With `O=C(Nc1cccc(CC2CCCCC2)n1)C1(c2ccc3c(c2)OCO3)CC1` [Compound 67] the Emax was over 100%.
With `CC(C)Cc1ccc(NC(=O)C2(c3ccc4c(c3)OCO4)CC2)nc1` [Compound 29] the Emax was over 100%.
`COc1ccccc1C(OCCO)c1ccc(NC(=O)C2(c3ccc4c(c3)OCO4)CC2)nc1` (stereo not shown) [Compound 57] showed an Emax of over 100%.
Molecule `COc1ccccc1Nc1ccc(NC(=O)C2(c3ccc4c(c3)OCO4)CC2)nc1` [Compound 52] has an Emax of over 100%.
With `COc1ccccc1C(=O)c1ccc(NC(=O)C2(c3ccc(OC(F)(F)F)cc3)CC2)nc1` [Compound 30] the Emax was 25 to 100%.
Molecule `NC(=O)c1ccc(NC(=O)C2(c3ccc4c(c3)OCO4)CC2)nc1` [Compound 6] has an Emax of 25 to 100%.
In the case of `COc1ccccc1C(OCCN(C(C)C)C(C)C)c1ccc(NC(=O)C2(c3ccc4c(c3)OCO4)CC2)nc1` (stereo not shown) [Compound 18], the Emax is reported as 25 to 100%.
For `COc1ccc(Cc2ccc(NC(=O)C3(c4ccc5c(c4)OCO5)CC3)nc2)cc1` [Compound 60], the Emax was over 100%.
With `Cc1ccc(NC(=O)C2(c3ccc4c(c3)OC(F)(F)O4)CC2)nc1NCc1ccccc1` [Compound 73] the Emax was over 100%.
With `O=C(c1ccccc1)c1ccc(NC(=O)C2(c3ccc4c(c3)OCO4)CC2)nc1` [Compound 14] the Emax was over 100%.
Molecule `COc1ccccc1Cc1ccc(NC(=O)C2(c3ccc4c(c3)OCO4)CC2)nc1` [Compound 35] has an Emax of over 100%.
Molecule `COc1ccc(C2(C(=O)Nc3cccc(C)n3)CC2)cc1` [Compound 54] has an Emax of 25 to 100%.
For `COc1ccccc1C(=O)c1ccc(NC(=O)C2(c3ccccc3)CC2)nc1` [Compound 77], the Emax was 25 to 100%.
`CCc1ccc(C)nc1NC(=O)C1(c2ccc3c(c2)OCO3)CC1` [Compound 43] showed an Emax of 25 to 100%.
For `COc1ccccc1C(O)c1ccc(NC(=O)C2(c3ccc4c(c3)OCO4)CC2)nc1` (stereo not shown) [Compound 44], the Emax was over 100%.
Work on `CCN(C)C(c1ccc(NC(=O)C2(c3ccc4c(c3)OCO4)CC2)nc1)c1ccccc1OC` (stereo not shown) [Compound 62] yielded an Emax of over 100%.
Molecule `O=C(Nc1ncccc1OCc1ccccc1)C1(c2ccccc2)CC1` [Compound 41] has an Emax of 25 to 100%.
`CCN(CC)C(c1ccc(NC(=O)C2(c3ccc4c(c3)OCO4)CC2)nc1)c1ccccc1OC` (stereo not shown) [Compound 7] was tested, and the Emax was over 100%.
`COC[C@@H]1CCCN1C(c1ccc(NC(=O)C2(c3ccc4c(c3)OCO4)CC2)nc1)c1ccccc1OC` (stereo partly shown) [Compound 51] showed an Emax of over 100%.
Work on `COc1ccccc1C(c1ccc(NC(=O)C2(c3ccc4c(c3)OCO4)CC2)nc1)N1CC(C)OC(C)C1` (stereo not shown) [Compound 23] yielded an Emax of over 100%.
`COc1ccccc1C(=O)c1ccc(NC(=O)C2(c3ccc(SC)cc3)CC2)nc1` [Compound 37] was tested, and the Emax was over 100%.
`COc1ccc(C2(C(=O)Nc3ccc(C(=O)c4ccccc4OC)cn3)CC2)cc1` [Compound 28] gave an Emax of over 100%.
`COc1ccccc1C(=O)c1ccc(NC(=O)C2(c3ccc(Cl)cc3)CC2)nc1` [Compound 76] was tested, and the Emax was over 100%.
`CCc1cccc(NC(=O)C2(c3ccccc3)CC2)n1` [Compound 61] showed an Emax of 25 to 100%.
In the case of `COc1ccccc1Nc1cccc(NC(=O)C2(c3ccc4c(c3)OCO4)CC2)n1` [Compound 64], the Emax is reported as 25 to 100%.
With `COc1ccc(C2(C(=O)Nc3ccc(Cc4ccccc4OC)cn3)CC2)cc1` [Compound 8] the Emax was 25 to 100%.
In the case of `COc1ccccc1C(=O)c1ccc(NC(=O)C2(c3ccc4c(c3)OC(F)(F)O4)CC2)nc1` [Compound 68], the Emax is reported as over 100%.
`COc1ccccc1Cc1ccc(NC(=O)C2(c3ccc(OC(F)(F)F)cc3)CC2)nc1` [Compound 4] was tested, and the Emax was over 100%.
Work on `CCc1ccnc(NC(=O)C2(c3ccc4c(c3)OCO4)CC2)c1` [Compound 2] yielded an Emax of over 100%.
In the case of `COc1ccccc1C(c1ccc(NC(=O)C2(c3ccc4c(c3)OCO4)CC2)nc1)N1CCCC1` (stereo not shown) [Compound 9], the Emax is reported as over 100%.
Work on `Cc1cccc(NC(=O)C2(c3ccc4c(c3)OCO4)CC2)n1` [Compound 72] yielded an Emax of over 100%.
For `Cc1ccnc(NC(=O)C2(c3ccc4c(c3)OCO4)CC2)c1` [Compound 21], the Emax was over 100%.
Work on `COc1ccc(C2(C(=O)Nc3ccc(C)cn3)CC2)cc1` [Compound 38] yielded an Emax of 25 to 100%.
With `COc1ccccc1C(=O)c1ccc(NC(=O)C2(c3ccc4c(c3)OCO4)CC2)nc1` [Compound 27] the Emax was over 100%.
`COc1ccccc1C(=O)c1ccc(NC(=O)C2(c3ccc(C)cc3)CC2)nc1` [Compound 70] was tested, and the Emax was over 100%.
In the case of `COc1ccccc1C(c1ccc(NC(=O)C2(c3ccc4c(c3)OCO4)CC2)nc1)N1CCC(O)CC1` (stereo not shown) [Compound 58], the Emax is reported as over 100%.
`Cc1cnc(NC(=O)C2(c3ccc4c(c3)OC(F)(F)O4)CC2)cc1-c1cccc(C(=O)O)c1` [Compound 50] was tested, and the Emax was 25 to 100%.
For `O=C(Nc1ccccn1)C1(c2ccc3c(c2)OCO3)CC1` [Compound 69], the Emax was over 100%.
Molecule `N#Cc1ccc(NC(=O)C2(c3ccc4c(c3)OCO4)CC2)nc1` [Compound 65] has an Emax of 25 to 100%.
`O=C(Nc1ccc(F)cn1)C1(c2ccc3c(c2)OCO3)CC1` [Compound 47] was tested, and the Emax was over 100%.
In the case of `COc1ccccc1C(=O)c1ccc(NC(=O)C2(c3ccccc3OC)CC2)nc1` [Compound 1], the Emax is reported as 25 to 100%.
In the case of `CCc1cccc(NC(=O)C2(c3ccc(OC)cc3)CC2)n1` [Compound 19], the Emax is reported as 25 to 100%.
